Laboratory results: ChEMBL document CHEMBL1142967, “Bis-cycloSal-d4T-monophosphates: drugs that deliver two molecules of bioactive nucleotides” (J Med Chem, 2007)

Experiments:
[1] = molecular target: Cholinesterase (Homo sapiens, UniProt P06276); assay: Inhibition of human serum BChE
[2] = Hydrolytic stability in 25 mM phosphate buffer at pH 7.3, 37 degC; type: physicochemical; conditions: for half-life: phosphate buffer; for t1/2: buffer
[3] = Cytotoxicity against CEM/0 cells; type: cell-based, CCRF-CEM; conditions: human
[4] = system: Human immunodeficiency virus 2; assay: Antiviral activity against H1V2 in CEM/0 cells; type: functional, organism-based
[5] = system: Human immunodeficiency virus 2; assay: Antiviral activity against H1V2 in TK-deficient CEM cells; type: functional, organism-based, CCRF-CEM
[6] = system: Human immunodeficiency virus 1; assay: Antiviral activity against HIV1 in CEM/0 cells; type: functional, organism-based
[7] = Human immunodeficiency virus 2, CCRF-CEM
[8] = Human immunodeficiency virus 1, CCRF-CEM

Chain of Cholinesterase (P06276 whole entry): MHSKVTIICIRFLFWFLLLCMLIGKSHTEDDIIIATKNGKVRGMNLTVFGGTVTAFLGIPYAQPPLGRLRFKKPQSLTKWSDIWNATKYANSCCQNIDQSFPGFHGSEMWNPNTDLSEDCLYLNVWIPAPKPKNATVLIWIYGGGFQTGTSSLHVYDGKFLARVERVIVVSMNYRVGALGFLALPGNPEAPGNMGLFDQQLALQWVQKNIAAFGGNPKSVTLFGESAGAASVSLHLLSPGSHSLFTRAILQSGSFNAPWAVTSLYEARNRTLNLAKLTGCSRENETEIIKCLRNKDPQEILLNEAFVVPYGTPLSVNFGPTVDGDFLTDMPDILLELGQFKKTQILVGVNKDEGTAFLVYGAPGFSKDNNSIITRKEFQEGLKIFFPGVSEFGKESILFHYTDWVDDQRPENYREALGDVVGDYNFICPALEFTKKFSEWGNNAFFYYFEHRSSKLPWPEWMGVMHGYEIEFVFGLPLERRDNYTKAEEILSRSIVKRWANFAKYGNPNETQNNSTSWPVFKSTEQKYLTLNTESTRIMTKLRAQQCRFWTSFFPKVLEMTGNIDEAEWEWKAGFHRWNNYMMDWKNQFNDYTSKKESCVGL

Structure (SMILES) | IC50 [1] | half-life [2] | CC50 ([3]; CEM/0 cells) | EC50 [4, 7] | EC50 [5, 7] | EC50 [6, 8] | CC50 ([3]; ccrf-cem) | EC50 ([4]; cem/0) | EC50 ([5]; ccrf-cem) | EC50 ([6]; cem/0) | t1/2 [2]
Cc1cn([C@H]2C=C[C@@H](COP(=O)(O)OCc3cccc(-c4cccc5c4OP(=O)(OC[C@@H]4C=C[C@H](n6cc(C)c(=O)[nH]c6=O)O4)OC5)c3O)O2)c(=O)[nH]c1=O (stereo not given in full) | 2.3 µM | – | – | – | – | – | – | – | – | – | –
Cc1cn([C@H]2C=C[C@@H](COP3(=O)OCc4cccc(-c5ccccc5)c4O3)O2)c(=O)[nH]c1=O (stereo not given in full) | 0.35 µM | 5.1 h | 22 µM | 0.27 µM | 0.28 µM | 0.13 µM | – | – | – | – | –
Cc1cc(CO)c(O)c(-c2cc(C)cc(CO)c2O)c1 | > 50 µM | – | > 150 µM | > 150 µM | – | > 150 µM | – | – | – | – | –
Cc1cc2c(c(-c3cc(C)cc4c3OP(=O)(OC[C@@H]3C=C[C@H](n5cc(C)c(=O)[nH]c5=O)O3)OC4)c1)OP(=O)(OC[C@@H]1C=C[C@H](n3cc(C)c(=O)[nH]c3=O)O1)OC2 (stereo not given in full) | > 50 µM | 12 h | 67.1 µM | 0.41 µM | 1.6 µM | 0.37 µM | – | – | – | – | –
OCc1cccc(-c2cccc(CO)c2O)c1O | > 50 µM | – | > 150 µM | > 150 µM | – | > 150 µM | – | – | – | – | –
Cc1cn([C@H]2C=C[C@@H](COP3(=O)OCc4cccc(-c5cccc6c5OP(=O)(OC[C@@H]5C=C[C@H](n7cc(C)c(=O)[nH]c7=O)O5)OC6)c4O3)O2)c(=O)[nH]c1=O (single isomer, unassigned; diastereomer 1) | 14 µM | – | – | – | – | – | 107 µM | 0.3 µM | 3.33 µM | 0.25 µM | –
Cc1cn([C@H]2C=C[C@@H](COP3(=O)OCc4cccc(-c5cccc6c5OP(=O)(OC[C@@H]5C=C[C@H](n7cc(C)c(=O)[nH]c7=O)O5)OC6)c4O3)O2)c(=O)[nH]c1=O (single isomer, unassigned; diastereomer 2) | > 50 µM | – | – | – | – | – | 90.7 µM | 0.22 µM | 2.37 µM | 0.21 µM | –
Cc1cn([C@H]2C=C[C@@H](COP3(=O)OCc4cccc(-c5cccc6c5OP(=O)(OC[C@@H]5C=C[C@H](n7cc(C)c(=O)[nH]c7=O)O5)OC6)c4O3)O2)c(=O)[nH]c1=O (stereo in doubt; 6) | 40 µM | – | – | 0.27 µM | 2.33 µM | 0.19 µM | 27.8 µM | – | – | – | –
Cc1cn([C@H]2C=C[C@@H](COP3(=O)OCc4cccc(-c5cccc(CO)c5O)c4O3)O2)c(=O)[nH]c1=O (stereo in doubt; 29(Rp)) | > 50 µM | – | – | – | – | – | 69.4 µM | 0.5 µM | 0.7 µM | 0.27 µM | 1.4 h
Cc1cn([C@H]2C=C[C@@H](COP3(=O)OCc4cccc(-c5cccc(CO)c5O)c4O3)O2)c(=O)[nH]c1=O (stereo in doubt; 29(Sp)) | 0.79 µM | 1.1 h | 78.7 µM | 0.4 µM | – | 0.34 µM | – | – | 1.5 µM | – | –
Cc1cn([C@H]2C=C[C@@H](COP3(=O)OCc4cccc(-c5cccc(CO)c5O)c4O3)O2)c(=O)[nH]c1=O (stereo in doubt; 29) | 2.3 µM | – | – | – | – | – | – | – | – | – | 1.3 h
Cc1cn([C@H]2C=C[C@@H](COP3(=O)OCc4cccc(-c5cccc6c5OC(C)(C)OC6)c4O3)O2)c(=O)[nH]c1=O (stereo in doubt; 33(Rp)) | > 50 µM | – | – | – | – | – | 55.3 µM | – | 0.55 µM | 0.36 µM | 21 h
Cc1cn([C@H]2C=C[C@@H](COP3(=O)OCc4cccc(-c5cccc6c5OC(C)(C)OC6)c4O3)O2)c(=O)[nH]c1=O (stereo in doubt; 33(Sp)) | 3.6 µM | 14 h | 89.3 µM | 0.4 µM | – | 0.5 µM | – | – | 3 µM | – | –
Cc1cn([C@H]2C=C[C@@H](COP3(=O)OCc4cccc(-c5cccc6c5OC(C)(C)OC6)c4O3)O2)c(=O)[nH]c1=O (stereo in doubt; 33) | 4.7 µM | – | – | – | – | – | 65 µM | – | 1.07 µM | 0.35 µM | 16 h
Cc1cn([C@H]2C=C[C@@H](CO)O2)c(=O)[nH]c1=O [STAVUDINE] | – | – | 105 µM | 0.19 µM | 51 µM | 0.25 µM | – | – | – | – | –
